# Measurements published in US20260137696A1, “Compositions Comprising an Inhibitor of Galectin-3” (University of Liverpool, priority 2023, published 2026).
# Experiments:
# [1] = test system: Salmonella typhimurium strain TA100; assay: Ames test (genotoxicity); assay type: cell-based; settings: TA100, up to 1 mM tested, with or without metabolic activation (S9)
# Experimental: (§1) Mutagenic potential of the compound of Formula I was assessed by Ames test in two Salmonella typhimurium strains TA98 and TA100 without and with metabolic activation (S9).
# (§2) Effect of the compound inhibitors on genotoxicity was determined using the Salmonella typhimurium strains of TA 98 and TA 100 in the presence and absence of metabolic activation (S9). Each test concentration included the vehicle and positive controls. Briefly, the compounds were serially diluted in 24-well plates with or without the presence metabolic activation system (S9) and was incubated for 90 min at 37° C. in 250 rpm in a orbital shaking incubator. TA98 and TA100 were then introduced to the wells for 90 min. 50 μL aliquots from each well was dispensed into 384 well plates and incubated for 48 hrs at 37° C. in an incubator before positive wells were scored.
# [2] = test system: Salmonella typhimurium strain TA98; assay: Ames test (genotoxicity); assay type: cell-based; settings: TA98, up to 1 mM tested, with or without metabolic activation (S9)
# Experimental: as §1, §2
# [3] = test system: THP-1 differentiated macrophages; assay: Galectin-3-induced pro-inflammatory cytokine secretion, cytokine ELISA; assay type: cell-based; settings: Galectin-3 10 μg/ml, various concentrations
# Experimental: Secretion of pro-inflammatory cytokines IL-6 (FIG. 7A), IL-1β (FIG. 7B) and TNFα (FIG. 7C) from THP-1 differentiated macrophages was analysed in the absence or presence of Galectin-3 (10 μg/ml) and various concentrations of the compound of Formula I by cytokine ELISA.
# THP-1 monocytes (5×10^5 cells/ml) were differentiated into macrophages by incubation with 10 ng/ml Phorbol 12-myristate-13-acetate (PMA) for 48 h at 37° C. The differentiated cells were washed gently with medium before introduction of fresh medium without or with 10 μg/ml Galectin-3, and/or different concentrations of the inhibitors for 24 h at 37° C. The culture medium was collected and the concentrations of IL-6, TNFα and IL1β in the medium were measured by IL-6, TNFα and IL1β ELISA kits according to the manufacture's protocols.
# SW620^Gal3− cells = assay: Tumour cell metastatic spread in mice (intravenous inoculation); assay type: in vivo, Balb/c nude mice; settings: 10 mg/kg/day subcutaneously; Galectin-3-suppressed SW620^Gal3− cells
# Experimental: (§3) The compound of Formula I effect on cancer metastasis was assessed in Balb/c nude mice. Luciferase-transfected, Galectin-3-expressing colon cancer SW620^Gal3+ and Galectin-3-suppressed SW620^Gal3− cells were inoculated to mice intravenously and the compound of Formula I was administrated subcutaneously, 10 mg/kg/day for 3 consecutive days in the first week and then once every week. Metastasis was monitored by IVIS imaging. […] The animals were sacrificed five weeks after tumour cell inoculation and the number of metastasis nodules on the surface of the animal lungs were quantified (FIG. 12B). Administration of the compound of Formula I caused 88% reduction of lung metastasis of Galectin-3-expressing SW620^Gal3+ cells but had little effect on Galectin-3-suppressed SW620^Gal3− cells;
# as §3, with “for 5” for “for 3”, “first” for “first week and then once every”, “Galectin-3-suppressed SW620^Gal3 cells.” for “Galectin-3-suppressed SW620^Gal3− cells;”
# (§4) Female Balb/c nude mice aged 6-7 weeks were purchased from Charles River Laboratories (Margate, UK) and maintained in specific pathogen-free conditions with a 12:12 hour light:dark cycle. All animal studies were conducted with UK Home Office and local ethics committee approval.
# (§5) Thirty-two mice were randomly divided into four groups (A to D). […] Tumour number on the surface of the lungs was assessed using a dissection microscope.
# SW620^Gal3+ cells = assay: as above; assay type: in vivo, Balb/c nude mice; settings: 10 mg/kg/day subcutaneously
# Experimental: as §3
# as §3, with “for 5” for “for 3”, “first” for “first week and then once every”, “Galectin-3-suppressed SW620^Gal3 cells.” for “Galectin-3-suppressed SW620^Gal3− cells;”
# as §4, §5
smiles,measurement,setting,value
C[C@H]1COc2c(N3CCN(C)CC3)c(F)cc3c(=O)c(C(=O)NNc4ccc(N)cc4)cn1c23 [Formula I],mutagenic activity,[1],no mutagenic activity
same,mutagenic activity,[2],no mutagenic activity
same,Galectin-3-induced secretion of IL-1β,[3],dose-dependent inhibition
same,Galectin-3-induced secretion of IL-6,[3],dose-dependent inhibition
same,Galectin-3-induced secretion of TNFα,[3],dose-dependent inhibition
same,effect on lung metastasis,SW620^Gal3− cells,little effect
same,lung metastasis in IVIS imaging,SW620^Gal3+ cells; 14 days after tumour cell inoculation,Substantially lower
same,reduction of lung metastasis (metastasis nodules on lung surface),SW620^Gal3+ cells; five weeks after tumour cell inoculation,88%
